PMC6724072, “Biotransformation of the Mycotoxin Enniatin B1 by CYP P450 3A4 and Potential for Drug-Drug Interactions” (Metabolites, 2019)
Read-outs that look alike come from different tables or passages of the source.

Assays:
CYP3A4 [1] = target: T1, CYP3A4 (Homo sapiens, UniProt P08684, S18F)
CYP3A4 [2] = tested on: CYP3A4; design: method as in PMID 16467307; details: read-out: Ks; cited from earlier work
CYP3A [3] = tested on: CYP3A
CYP3A4/5 = details: HLM, 10 µM DON and […] ENNB1
CYP3A4 [4] = target: T1, CYP3A4; details: ND; 15 min; DON 10 µM and 50 µM; different ENNB1 concentrations
CYP3A4 [5] = target: T1, CYP3A4; details: for PGS hydroxylation rate (sum of 2β- and 6β-OH-PGS): ND, without DON, mean ± SEM
CYP3A [6] = details: porcine hepatic microsomes; cited from earlier work
[7] = ENNB1 substrate depletion assay in human liver microsomes; type: in vitro ADME; details: HLM
Method: (§1) The kinetic parameters were derived in HLM assays from the substrate depletion rate constants (ke) that were determined by regression analysis of measured peak areas of the added substrate versus time curves (A(t) = b + a*e^−ket), as described before. Briefly, the assay half-lifes (t1/2, assay = ln2/ke) and assay clearances (CLassay = Vassay*ke) were calculated under consideration of the assay volume (Vassay). Disregarding the potential protein binding of the substrate in the reaction mixture (assuming that the fraction unbound in the assay (fu, assay ~ 1)), the determined assay clearances approximated the intrinsic assay clearances (CLint, assay), which can be described by the Michaelis–Menten equation parameters maximal velocity (vmax, assay) and […] (KM, assay) under the condition that the substrate concentration is well below the KM-value (CLint, assay = vmax, assay/KM, assay). The KM, assay for ENNB1 depletion was determined with different initial concentrations by plotting the determined depletion rate constants versus the respective concentrations. The inflection point of the curve in a lin-log plot represented the KM-value, which occurred when ke is half of the theoretical maximum k0 at infinitesimally low ENNB1 concentrations (ke = k0[ENNB1]→0 *(1 − [ENNB1]/([ENNB1] + KM)).
ENNB1 and its major biotransformation products were analysed while using a Finnigan LTQ linear ion trap mass spectrometer (Thermo Fisher Scientific Inc., Waltham, MA, USA) that was coupled to an ACQUITY UPLC System (Waters). Separation was achieved on a 50 × 2.1-mm i.d. C18 3-μm SunFire column (Waters) with 0.5 μm pre-column filter (Supelco, Bellefonte, PA, USA). The mobile phase was composed of water (A) and MeCN (B) (both containing 2 mM NH4COOH and 2 mM HCOOH). The optimised linear gradient started at 40% B and was held for 1.5 min, before it was raised to […] over 14.5 min. The column was flushed with […] for 2 min, returned to 40% B, and equilibrated for 2.0 min. The total run time was 20 min.
ENNB1 and its putative metabolites were identified by their molecular weights (mass-to-charge (m/z) ratios) and specific retention times. In addition, the MS^n data of the sodiated molecular ions were specified in fragmentation experiments and used for confirmation. The measured peak areas of the ammoniated molecular ions ([M+NH4]^+) were used for the determination of in vitro kinetic parameters and for quantification purposes.

[8] = In vitro-to-in vivo extrapolation of kinetic parameters (well-stirred liver model); type: in vitro ADME
Method: as §1
The CLint, assay in HLM was upscaled to the assay-independent, intrinsic liver clearance (CLint = CLint, assay*MRI*RLW/Protassay) by considering the amounts of microsomal protein in the assay (Protassay), human relative liver weight (RLW), and human microsomal recovery index (MRI) (Table 1). In vitro-to-in vivo extrapolation (IVIVE) was performed by applying the well-stirred liver model and calculating the systemic blood clearances (CLb) from the CLint, while considering the human hepatic blood flow (Q) (CLb = Q*CLint*fu,b/(Q + CLint*fu,b)). […] The maximal bioavailability (fmax) after oral application was calculated under the assumption of complete absorption from the gastrointestinal tract (fa = 1) as fmax = 1 − CLb/Q.

[9] = design: method as in PMID 24239892, PMID 23598119; details: pigs; cited from earlier work
[10] = design: method as in PMID 27632250; details: chicken; cited from earlier work
in vitro = details: human, microsomes, pH 7.4
female mice = tested on: female mice; design: method as in doi:10.2903/sp.efsa.2018.EN-1406; details: cited from earlier work
CYP3A [11] = test: in vitro; details: human, microsomes, pH 7.4
CYP3A4 [12] = details: cited from earlier work

T1 sequence (P08684 with tags, fused parts or gaps S18F limits assumed): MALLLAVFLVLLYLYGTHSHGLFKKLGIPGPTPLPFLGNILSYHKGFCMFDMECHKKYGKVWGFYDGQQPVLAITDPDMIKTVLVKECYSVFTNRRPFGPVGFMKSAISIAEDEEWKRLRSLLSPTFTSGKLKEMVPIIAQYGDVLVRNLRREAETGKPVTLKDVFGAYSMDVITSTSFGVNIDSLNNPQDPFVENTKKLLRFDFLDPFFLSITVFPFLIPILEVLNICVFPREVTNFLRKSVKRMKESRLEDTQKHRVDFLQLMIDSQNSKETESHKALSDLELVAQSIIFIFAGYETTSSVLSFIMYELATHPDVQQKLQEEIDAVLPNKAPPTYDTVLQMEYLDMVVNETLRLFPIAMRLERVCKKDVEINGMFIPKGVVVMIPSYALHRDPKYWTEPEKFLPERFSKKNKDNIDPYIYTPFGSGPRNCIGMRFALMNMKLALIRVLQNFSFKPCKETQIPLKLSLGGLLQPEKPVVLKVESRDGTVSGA
T1 sequence (P02647 79-267 partner limits assumed): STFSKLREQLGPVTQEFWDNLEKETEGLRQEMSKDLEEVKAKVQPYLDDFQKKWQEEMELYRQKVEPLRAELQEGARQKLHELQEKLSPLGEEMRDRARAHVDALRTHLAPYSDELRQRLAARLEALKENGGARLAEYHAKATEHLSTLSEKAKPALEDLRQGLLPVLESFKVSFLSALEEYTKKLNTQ

CC1=C[C@H]2O[C@@H]3[C@H](O)C[C@](C)([C@@]2(CO)[C@H](O)C1=O)[C@]31CO1 [DON, Deoxynivalenol]
effect on MDZ metabolite formation profiles (CYP3A [3]; HLM, DON up to 50 µM): Only an indication of a slight change | effect on MDZ depletion kinetics (CYP3A [3]; HLM, DON up to 50 µM, data not shown): did not have a significant effect | effect on formation of ENNB1 metabolites M3/4, M5, M6 (sum) (CYP3A4/5): inhibited the formation of the hydroxylated ENNB1 metabolites M3/4, M5, and M6 in HLM significantly | effect on depletion of ENNB1 (CYP3A4/5; data not shown): did not observe a significant difference | formation of hydroxylated ENNB1 metabolites vs assays only containing ENNB1 (CYP3A4 [4]): significantly lower | inhibition of the CYP3A4-dependent metabolism of the typical substrates (CYP3A4 [5]): weak to moderate inhibition | decrease of 2-OH ATVS lactone (minor product) formation (CYP3A4 [5]; human, pH 7.4): about 20% | reduction of CYP3A reactivity (CYP3A [6]): about 20%

CC[C@H](C)[C@H]1C(=O)O[C@H](C(C)C)C(=O)N(C)[C@@H](C(C)C)C(=O)O[C@H](C(C)C)C(=O)N(C)[C@@H](C(C)C)C(=O)O[C@H](C(C)C)C(=O)N1C [ENNB1, Enniatin B1]
CLint, assay ([7]; 1 mL assay, 2 mg microsomal protein): 0.07 mL/min | unchanged molecule detectable ([7]; incubation of 6 µM for 60 min): less than 4% | k el at 3 µM ([7]; human, human liver microsomes, pH 7.4, ENNB1 concentration 3 µM, read-out: ke (converted)): 0.00108 s⁻¹ | half-life at 3 µM ([7]; human, human liver microsomes, pH 7.4, substrate concentration 3 µM, read-out: t1/2, assay): 11 min | Km ([7]; human, liver microsomes, pH 7.4, derived from depletion assays with three ENNB1 concentrations (0.8; 3; 6 µM)): 10.1 µM | bioavailability ([8]; human liver microsomes, po, assuming complete absorption from the gastrointestinal tract, read-out: fmax (maximum oral bioavailability)): 45% | CLint ([8]; human, MRI = 40 mg/g, RLW = 22 g/kg BW): 1.72 L/(h×kg×BW) | CLb ([8]; human, well-stirred model, Q = 1.4 L/(h × kg), fu,b ≈ 1): 0.77 L/(h×kg×BW) | 1,4-OH-MDZ level relative to ENNB1-free metabolism (CYP3A [3]; HLM, after 60 min, with ENNB1): reduced to the half | 1-OH-MDZ level relative to ENNB1-free metabolism (CYP3A [3]; HLM, after 60 min, with ENNB1): returned to normal | MDZ metabolite formation in presence of ENNB1 (CYP3A [3]; HLM, first 15 min): generally hindered | spin shift of CYP3A4 haem iron (binding) (CYP3A4 [1]; ND, ENNB1 21 µM): visible spectral change | bioavailability [9]: > 90% | bioavailability [10]: < 10% | half-life at […] (in vitro): 12 min

CC(C)[C@H]1C(=O)O[C@H](C(C)C)C(=O)N(C)[C@@H](C(C)C)C(=O)O[C@H](C(C)C)C(=O)N(C)[C@@H](C(C)C)C(=O)O[C@H](C(C)C)C(=O)N1C [ENNB, Enniatin B]
no-observed adverse effect level (NOAEL) (female mice): 0.18 mg/kg body-weight (bw)/day | bioavailability [9]: > 90% | bioavailability [10]: < 10%

Cc1ncc2n1-c1ccc(Cl)cc1C(c1ccccc1F)=NC2 [MDZ, midazolam]
initial MDZ detectable (CYP3A [3]; human, pH 7.4): about 0.2% | half-life (CYP3A [11]): 12 min | Km (CYP3A4 [12]; read-out: KM,1-OH-MDZ, 1-hydroxylation of MDZ): 3.9 µM | Km (CYP3A4 [12]; read-out: KM,4-OH-MDZ, 4-hydroxylation of MDZ): 77.5 µM

CC(=O)[C@H]1CC[C@H]2[C@@H]3CCC4=CC(=O)CC[C@]4(C)[C@H]3CC[C@]12C [PGS, progesterone, reference compound]
PGS hydroxylation rate (sum of 2β- and 6β-OH-PGS) (CYP3A4 [5]; PGS 15 μM): 5.3 ± 0.6 nmol/(min×nmol CYP3A4) | PGS hydroxylation rate (sum of 2β- and 6β-OH-PGS) (CYP3A4 [5]; PGS 40 μM): 10.4 ± 1.0 nmol/(min×nmol CYP3A4)
